Like-named read-outs stand apart in the source and are kept apart here.
How the values were obtained:
WT-SOD1 = WT-SOD1 aggregation by cellular stress; assay type: cell-based
SOD1 [1] = assay: Western blot / native gel analysis of SOD1 aggregation; assay type: cell-based, human; details: Table 1; effect on SOD1 aggregation, native / non-SDS-PAGE gel
Experimental: Using RIPA buffer (50 mM Tris-Cl, pH 7.5, 150 mM NaCl, 1% NP-40, 0.1% SDS and […]) for SDS-PAGE and lysis buffer (50 mM Tris-Cl, pH 7.5, 150 mM NaCl, 0.3% NP-40) for Native-PAGE, proteins were extracted from cells. Samples were separated by the SDS-PAGE or the Native-PAGE and transferred to PVDF membrane. Blotted membrane was blocked with TBST buffer including 3% skim milk for 1 hour, and reacted with specific antibodies. The reacted antibodies were detected by ECL and X-ray film exposure. Antibodies used in the present disclosure are as follows: pan-SOD1 (GTX100554) was purchased from Genetex (California, USA). Misfolded SOD1-specific antibody (B8H10) was purchased from MediMabs (Montreal, Canada). Actin (sc-1616), GST (sc-138), and GFP (Green fluorescent protein; sc-8036) were purchased from Santa Cruz biotechnology (Santa Cruz, CA, USA). TDP-43 antibody (10782-2-AP) was purchased from Proteintech (Rosemont, IL, USA). Anti-FLAG (Sigma; F3165) was purchased from Sigma Aldrich (St, Louis, Mo, USA), and HRP-conjugated goat anti-mouse, goat anti-rabbit, and mouse anti-goat antibodies (Pierce, Thermo Fisher Scientific, Inc., Rockford, IL, USA) were used as secondary antibodies.
(§1) GFP-SOD1 (WT, G85R, G93A), non-tagged SOD1 (WT, A4V, G37R, G85R, G93A) and tdTomato-TDP43 expression vectors were purchased from Addgene (Cambridge, MA, USA). Transfection was performed using Jet-PEI reagent (JetPEI; Polyplus transfection, New York, NY, USA) according to the manufacturer's protocol. Briefly, vectors were mixed with JetPEI reagent in 150 mM NaCl buffer, and then mixture was reacted for 15 minutes. The mixture was added to cells in serum-free medium and reacted for 4 hours. After reaction, the cells were replaced with a culture medium supplemented with 10% FBS.

SOD1 [2] = assay: Immunofluorescence staining of SOD1 aggregation and misfolded SOD1; assay type: cell-based, human; details: Table 1; IF staining of SOD1
Experimental: Cells on coverslip were washed with PBS, fixed with 4% PFA at room temperature for 30 minutes, and then infiltrated with 0.1% Triton X-100/PBS for 10 minutes. The cells were treated with blocking solution (anti-Human Antibody 1:500 dilution in PBS) for 1 hour, and then cells were reacted with anti-pan SOD1 (1:400 dilution), misfolded SOD1 (B8H10; 1:200 dilution in blocking solution) at 4° C. overnight. Finally, the cells were reacted with FITC and rhodamine-conjugated secondary antibody at 4° C. for 6 hours. Nuclei were stained with 4,6-diamidino-2-phenylindole (DAPI), and endoplasmic reticula (ERs) were stained with ER-Tracker Red dye for 10 minutes. The cells were washed 3 times with PBS, and then coverslips were mounted with mounting solution [H-5501; Vector Laboratories (Burlingame, CA, USA)] and analyzed by fluorescence microscopy (Zeiss).
as §1

[3] = system: WT-SOD1 and mutant SOD1-GST (A4V, G37R, G85R, G93A); assay: ELISA compound screening for binding inhibitor between WT-SOD1 and mutant SOD1; set-up: species or system human; details: Table 1; compounds at final concentration of 50 μM
Experimental: For compound screening, the present inventors applied an ELISA assay system. To select a binding inhibitor between WT-SOD1 and mutant SOD1, the present inventors used 0.5% paraformaldehyde (PFA) to fix WT-SOD1 recombinant protein on a 96-well plate. The plate was dried, washed with phosphate-buffered saline (PBS), and reacted with the compounds at a final concentration of 50 μM, and then mutant SOD1-GST (A4V, G37R, G85R, G93A) proteins were added. After 2 hours of reaction, the 96-well plate was washed with PBS and blocked with 3% skim milk to prevent non specific reaction. The plate was reacted with anti-GST antibody (diluted at 1:10,000) for 1 hour, and then reacted with anti-mouse IgG-HRP (diluted at 1:50,000) for 1 hour. After washing twice, the plate was reacted with a 3,3′,5,5′-tetramethylbenzidine (TMB) solution (Calbiochem) for 30 minutes and a stop solution (1N H2SO4) for 30 minutes. Finally, the present inventors analyzed values using an ELISA reader (450 nm absorbance). Negative control (−; red line) was reacted without mutant SOD1, and positive control (+; blue line) was reacted with mutant SOD1 without the compounds.
To prepare recombinant proteins, human SOD1 (WT, A4V, G37R, G85R, G93A) was added to EcoRI and HindIII sites of pGEX-TEV vector, an improved vector made by adding a TEV protease cleavage site to pGEX-4T1 (Invitrogen). The recombinant proteins were expressed as GST-fusion proteins in Escherichia coli (E. coli) strain BL21 (DE3). The proteins were purified by glutathione-affinity chromatography.

normal human fibroblasts = assay: Cell viability measurement (MTT), normal fibroblasts; assay type: cell-based; details: Table 1; cell type not given, neurons (FIG. 9A) and normal fibroblasts (FIG. 9B)
Experimental: HEK293 cells were purchased from American Type Culture Collection (ATCC, Manassas, VA, USA) and maintained at 37° C. and 5% CO2 in DMEM liquid medium including 10% fetal bovine serum and 1% penicillin-streptomycin. SK—N—SH cells were purchased from Korean Cell Line Bank (KCLB, Seoul, South Korea) and maintained in MEM medium including 10% fetal bovine serum, 1% antibiotic, 25 mM HEPES, and 300 mg/L L-Glu. Human fibroblasts (person) were purchased from Coriell Cell Repositories (New Jersey, USA) and maintained in EMEM including 15% FBS, 2 mM Glutamine, and 26 mM HEPES without antibiotics. Thapsigargin (ER calcium scavenger: CAS 67526-95-8) was purchased from Calbiochem (Darmstadt, Germany). CoCl2 (hypoxia-inducer: C8661) was purchased from Sigma Aldrich (St, Louis, Mo, USA).
To check cells viability, the cells were reacted with 0.5 mg/ml MTT solution (475989; Merck, Darmstadt, Germany) at 37° C. for 4 hours. After removing residual solution and washing with PBS, precipitate was dissolved in 200 μl DMSO, and quantified by measuring absorbance at 540 nm.

Row | Compound | SOD1 aggregation under cellular stress agents (WT-SOD1; FIG. 1C, 1D, FIG. 2) | SOD1 aggregation under cellular stress agents (WT-SOD1) | Western Blot (SOD1 [1]) | Immuno-fluorscence (SOD1 [2]) | ELISA [3] | Toxicity (MTT) (normal human fibroblasts)
1 | C[N+](C)(C)CCO.C[N+](C)(C)CCO.[SH-].[SH-].[S]=[Mo]=[S] [ATN-224] | induced the WT-SOD1 aggregation | – | – | – | – | –
2 | [Cl-].[Cl-].[Co+2] [CoCl2] | – | SOD1 aggregation and increase of misfolded SOD1 | – | – | – | –
3 | COc1cc(CCC(=O)O[C@H]2Cc3cc4ccc(=O)oc4cc3OC2(C)C)ccc1O [SNU-C4, (S)-8,8-dimethyl-2-oxo-7,8-dihydro-2H,6H-pyrano[3,2-g]chromen-7-yl 3-(4-hydroxy-3-methoxyphenyl) propanoate] | – | – | Effect x | Effect x | Effect x | No
4 | COc1ccc(/C=C/C(=O)O[C@H]2Cc3cc4ccc(=O)oc4cc3OC2(C)C)cc1OC [SNU-C5, (S)-8,8-dimethyl-2-oxo-7,8-dihydro-2H,6H-pyrano[3,2-g]chromen-7-yl (E)-3-(3,4-dimethoxyphenyl) acrylate] | – | – | Effect x | Effect x | Effect ○ | No
5 | COc1ccc(CCC(=O)O[C@H]2Cc3cc4ccc(=O)oc4cc3OC2(C)C)cc1OC [SNU-C7, (S)-8,8-dimethyl-2-oxo-7,8-dihydro-2H,6H-pyrano[3,2-g]chromen-7-yl 3-(3,4-dimethoxyphenyl) propanoate] | – | – | Effect x | Effect x | Effect x | No
6 | CC1(C)Oc2cc3oc(=O)ccc3cc2C[C@@H]1OC(=O)/C=C/c1ccncc1 [SNU-C9, (S)-8,8-dimethyl-2-oxo-7,8-dihydro-2H,6H-pyrano[3,2-g]chromen-7-yl (E)-3-(pyridin-4-yl) acrylate] | – | – | Effect ○ | Effect ○ | Effect x | No
7 | CC1(C)Oc2cc3oc(=O)ccc3cc2C[C@@H]1OC(=O)/C=C/c1cccc(O)c1 [SNU-C10, (S)-8,8-dimethyl-2-oxo-7,8-dihydro-2H,6H-pyrano[3,2-g]chromen-7-yl (E)-3-(3-hydroxyphenyl) acrylate] | – | – | Effect ○ | Effect ○ | Effect ○ | No
8 | CC1(C)Oc2cc3oc(=O)ccc3cc2C[C@@H]1OC/C=C/c1ccc(F)cc1 [SNU-C13, (S,E)-7-((3-(4-fluorophenyl)allyl)oxy)-8,8-dimethyl-7,8-dihydro-2H,6H-pyrano[3,2-g]chromen-2-one] | – | – | Effect x | – | – | –
9 | CC(=O)Oc1cccc(/C=C/C(=O)O[C@H]2Cc3cc4ccc(=O)oc4cc3OC2(C)C)c1 [SNU-C14, (S)-8,8-dimethyl-2-oxo-7,8-dihydro-2H,6H-pyrano[3,2-g]chromen-7-yl (E)-3-(3-acetoxyphenyl) acrylate] | – | – | Effect ○ | Effect ○ | Effect ○ | No
10 | COc1cc(CCC(=O)O[C@H]2Cc3cc4ccc(=O)oc4cc3OC2(C)C)ccc1OC(C)=O [SNU-C15, (S)-8,8-dimethyl-2-oxo-7,8-dihydro-2H,6H-pyrano[3,2-g]chromen-7-yl 3-(4-acetoxy-3-methoxyphenyl) propanoate] | – | – | Effect ○ | Effect ○ | Effect x | No
11 | COc1cc(/C=C/C(=O)O[C@H]2Cc3cc4ccc(=O)oc4cc3OC2(C)C)ccc1OC(C)=O [SNU-C17, (S)-8,8-dimethyl-2-oxo-7,8-dihydro-2H,6H-pyrano[3,2-g]chromen-7-yl (E)-3-(4-acetoxy-3-methoxyphenyl) acrylate] | – | – | Effect ○ | Effect ○ | – | –
12 | CC1(C)Oc2cc3oc(=O)ccc3cc2C[C@@H]1OC(=O)/C=C/c1ccc(F)c(F)c1 [SNU-C18, (S)-8,8-dimethyl-2-oxo-7,8-dihydro-2H,6H-pyrano[3,2-g]chromen-7-yl (E)-3-(3,4-difluorophenyl) acrylate] | – | – | Effect ○ | Effect ○ | – | Toxic
13 | c1ccc(CN(CCN(Cc2ccccn2)Cc2ccccn2)Cc2ccccn2)nc1 [TPEN] | induced the WT-SOD1 aggregation | – | – | – | – | –
14 | C/C=C(/C)C(=O)O[C@H]1C(C)=C2[C@H]([C@@H]1OC(=O)CCCCCCC)[C@@](C)(OC(C)=O)C[C@H](OC(=O)CCC)[C@@]1(O)[C@H]2OC(=O)[C@@]1(C)O [Thapsigargin] | promoted the WT-SOD1 aggregation | – | – | – | – | –

Source: patent US12448393B2, “Use of novel compound, for preventing, improving or treating amyotrophic lateral sclerosis” (PRG S&TECH INC., priority 2019, dated 2025)
